Among the data in patent US20250145596A1, “HETEROCYCLIC GLP-1 AGONISTS” (Gasherbrum Bio, Inc., priority 2022, published 2025) are EC50 values, retold here.

For the assay, the target named is T1, GLP-1 Receptor (Homo sapiens, UniProt P43220).
T1 construct: host or cells: HEK293/CRE-Luc
Briefly: GLP-1R agonist cAMP stimulation assay. Format: cell-based. The conditions noted are these: HEK293/CRE-Luc cell line stably expressing the GLP-1 Receptor; 30 min at 37° C.; cAMP dynamic 2 Kit. The essentials:
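HEK293 cells stably expressing GLP-1R with CRE-luciferase, 1000 cells/well in DPBS with 0.5 mM IBMX and 0.1% BSA, exposed to compound (½-log dilutions) for 30 min at 37 °C. cAMP measured by HTRF (665/615 nm) after 1 h at room temperature; % activity scaled between vehicle and maximal control.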

T1 sequence (P43220 24-463): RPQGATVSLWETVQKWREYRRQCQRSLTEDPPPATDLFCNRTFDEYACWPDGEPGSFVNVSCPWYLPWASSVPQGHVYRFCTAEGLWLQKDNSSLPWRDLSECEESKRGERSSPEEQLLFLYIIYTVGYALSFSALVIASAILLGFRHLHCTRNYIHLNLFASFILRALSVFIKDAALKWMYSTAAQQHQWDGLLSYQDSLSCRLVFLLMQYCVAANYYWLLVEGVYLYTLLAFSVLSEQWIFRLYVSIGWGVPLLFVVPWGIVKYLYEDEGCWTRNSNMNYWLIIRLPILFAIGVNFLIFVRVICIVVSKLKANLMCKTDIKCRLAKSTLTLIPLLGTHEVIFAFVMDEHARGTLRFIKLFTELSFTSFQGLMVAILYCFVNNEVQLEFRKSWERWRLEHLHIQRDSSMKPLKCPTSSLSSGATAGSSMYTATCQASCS

For the compound `N#CC1(Cc2cc(-c3nnc(C(F)(F)F)[nH]3)cnc2CN2CCC(c3ccnc(OCc4ccc(Cl)cc4F)n3)CC2)CC1` [Example 34, 1-({2-[(4-{2-[(4-chloro-2-fluorophenyl)methoxy]pyrimidin-4-yl}piperidin-1-yl)methyl]-5-[5-(trifluoromethyl)-4H-1,2,4-triazol-3-yl]pyridin-3-yl}methyl)cyclopropane-1-carbonitrile], the EC50 was under 1 nM.

In turn, `C[C@]1(c2ccc(Cl)cc2F)Oc2cccc(C3CCN(Cc4ncc(-c5nnc(C(F)(F)F)[nH]5)cc4CC4(C#N)CC4)CC3F)c2O1` (single isomer, unassigned) [Example 27] returned an EC50 of under 1 nM.

Take `C[C@]1(c2ccc(Cl)cc2F)Oc2cccc(C3CCN(Cc4ncc(-c5nnc(C(F)(F)F)[nH]5)nc4CC4(C#N)CC4)CC3)c2O1` [Example 62, 1-{[3-({4-[(2S)-2-(4-chloro-2-fluorophenyl)-2-methyl-2H-1,3-benzodioxol-4-yl]piperidin-1-yl}methyl)-6-[5-(trifluoromethyl)-4H-1,2,4-triazol-3-yl]pyrazin-2-yl]methyl}cyclopropane-1-carbonitrile]: the EC50 was under 1 nM.

`C[C@H]1CN(c2ccnc(OCc3ccc(Cl)cc3F)n2)CCN1Cc1ncc(-c2nnc(C(F)(F)F)[nH]2)cc1CC1(C#N)CC1` [Example 91]: the EC50 lay within 1 to 100 nM.

For `Cc1cc(-c2nnn[nH]2)nnc1CN1CCC(c2cccc3c2O[C@@](C)(c2ccc(Cl)cc2F)O3)CC1` [Example 50, 3-({4-[(2S)-2-(4-chloro-2-fluorophenyl)-2-methyl-1,3-benzodioxol-4-yl]piperidin-1-yl}methyl)-4-methyl-6-(1H-1,2,3,4-tetrazol-5-yl)pyridazine], the concentration giving a half-maximal response (EC50) lay in the range of 1 to 100 nM.

`C[C@]1(c2ccc(Cl)cc2F)Oc2cccc(C3CCN(Cc4ncc(-c5noc(=O)[nH]5)cc4CC4(C#N)CC4)CC3)c2O1` [Example 73] had an EC50 of under 1 nM.

`C[C@]1(c2ccc(Cl)cc2F)Oc2cccc(C3CCN(Cc4ncc(-c5nnc(C#N)[nH]5)cc4CC4(C#N)CC4)CC3)c2O1` [Example 18, (S)-5-(6-((4-(2-(4-chloro-2-fluorophenyl)-2-methylbenzo[d][1,3]dioxol-4-yl)piperidin-1-yl)methyl)-5-((1-cyanocyclopropyl)methyl)pyridin-3-yl)-4H-1,2,4-triazole-3-carbonitrile] came in with an EC50 of under 1 nM.

`Cc1nc(-c2nnc(C(F)(F)F)[nH]2)cnc1CN1CCC(c2cccc3c2O[C@@](C)(c2ccc(Cl)cc2F)O3)CC1` [Example 52, 2-({4-[(2S)-2-(4-chloro-2-fluorophenyl)-2-methyl-1,3-benzodioxol-4-yl]piperidin-1-yl}methyl)-3-methyl-5-[5-(trifluoromethyl)-4H-1,2,4-triazol-3-yl]pyrazine] displayed an EC50 of 1 to 100 nM.

Regarding `C[C@]1(c2ccc(Cl)cc2F)Oc2cccc(C3CCN(Cc4ncc(-c5nnc(C(F)(F)F)[nH]5)cc4CC4CCOC4)CC3)c2O1` (stereo partly drawn) [Example 79], the EC50 was in the range of 1 to 100 nM.

On to `CC1(c2ccc(Cl)cc2F)Oc2cccc(C3CCN(Cc4ncc(-c5nnn[nH]5)cc4C(F)(F)F)CC3)c2O1` (stereo not drawn) [Example 98], for which the EC50 is over 100 nM.

The compound `C[C@]1(c2ccc(Cl)cc2F)Oc2cccc(C3CCN(Cc4ncc(-c5nnc(C(F)F)[nH]5)cc4CC4(C#N)CC4)CC3)c2O1` [Example 17, 1-{[2-({4-[(2S)-2-(4-chloro-2-fluorophenyl)-2-methyl-2H-1,3-benzodioxol-4-yl]piperidin-1-yl}methyl)-5-[5-(difluoromethyl)-4H-1,2,4-triazol-3-yl]pyridin-3-yl]methyl}cyclopropane-1-carbonitrile] had an EC50 of under 1 nM.

Regarding `COCC1(Cc2cc(-c3nnc(C(F)(F)F)[nH]3)cnc2CN2CCC(c3cccc4c3OC(C)(c3ccc(Cl)cn3)O4)CC2)CC1` (stereo not drawn) [Example 85], the EC50 lay within 1 to 100 nM.

Compound `Cc1cc(-c2nnc(C(F)(F)F)[nH]2)cnc1CN1CCC(c2cccc(OCc3ccc(Cl)cc3F)n2)CC1` [Example 90] came in with an EC50 of 1 to 100 nM.

Compound `CC1(c2ccc(F)cc2F)Oc2cccc(C3CCN(Cc4ncc(-c5nnc(C(F)(F)F)[nH]5)cc4CC4(C#N)CC4)CC3)c2O1` (stereo not drawn) [Example 5, 1-{[2-({4-[2-(2,4-difluorophenyl)-2-methyl-2H-1,3-benzodioxol-4-yl]piperidin-1-yl}methyl)-5-[5-(trifluoromethyl)-4H-1,2,4-triazol-3-yl]pyridin-3-yl]methyl}cyclopropane-1-carbonitrile] showed a half-maximal effective concentration (EC50) of under 1 nM.

The compound `COC(C)Cc1cc(-c2nnc(C(F)(F)F)[nH]2)cnc1CN1CCC(c2cccc3c2O[C@@](C)(c2ccc(Cl)cc2F)O3)CC1` (stereo partly drawn) [Example 81] registered an EC50 of 1 to 100 nM.

Turning to `N#CC1(Cc2cc(-c3nnc(C(F)(F)F)[nH]3)cnc2CN2CCC(c3cccc(OCc4ccc(Cl)cc4F)n3)CC2)CC1` [Example 32, 1-({2-[(4-{6-[(4-chloro-2-fluorophenyl)methoxy]pyridin-2-yl}piperidin-1-yl)methyl]-5-[5-(trifluoromethyl)-4H-1,2,4-triazol-3-yl]pyridin-3-yl}methyl)cyclopropane-1-carbonitrile], the EC50 is under 1 nM.

The compound `COC1(Cc2cc(-c3nnc(C(F)(F)F)[nH]3)cnc2CN2CCC(c3cccc4c3O[C@@](C)(c3ccc(Cl)cc3F)O4)CC2)CC1` [Example 53, 2-({4-[(2S)-2-(4-chloro-2-fluorophenyl)-2-methyl-2H-1,3-benzodioxol-4-yl]piperidin-1-yl}methyl)-3-[(1-methoxycyclopropyl)methyl]-5-[5-(trifluoromethyl)-4H-1,2,4-triazol-3-yl]pyridine] had a concentration giving a half-maximal response (EC50) of 1 to 100 nM.

Turning to `CC1(c2ccc(Cl)cc2F)Oc2cccc(C3CCN(Cc4ncc(-c5nnc(C(F)(F)F)[nH]5)cc4CC4(C#N)CC4)CC3O)c2O1` (single isomer, unassigned) [Example 24, 1-[(2-{[(3,4-trans)-4-[2-(4-chloro-2-fluorophenyl)-2-methyl-2H-1,3-benzodioxol-4-yl]-3-hydroxypiperidin-1-yl]methyl}-5-[5-(trifluoromethyl)-4H-1,2,4-triazol-3-yl]pyridin-3-yl)methyl]cyclopropane-1-carbonitrile], the EC50 is under 1 nM.

In turn, `CC1(c2ccc(Cl)cc2F)Oc2cc(F)cc(C3CCN(Cc4ncc(-c5nnc(C(F)(F)F)[nH]5)cc4CC4(C#N)CC4)CC3)c2O1` (single isomer, unassigned) [Example 14, 1-{[2-({4-[2-(4-chloro-2-fluorophenyl)-6-fluoro-2-methyl-2H-1,3-benzodioxol-4-yl]piperidin-1-yl}methyl)-5-[5-(trifluoromethyl)-4H-1,2,4-triazol-3-yl]pyridin-3-yl]methyl}cyclopropane-1-carbonitrile] yielded an EC50 of under 1 nM.

`N#CC1(Cc2cc(-c3nnc(C(F)(F)F)[nH]3)cnc2CN2CCC(Oc3ccnc(Cc4ccc(Cl)cc4F)n3)CC2)CC1` [Example 86]: the EC50 is 1 to 100 nM.

Compound `Cc1cc(-c2noc(=O)[nH]2)nnc1CN1CCC(c2cccc3c2O[C@@](C)(c2ccc(Cl)cc2F)O3)CC1` [Example 51, (S)-3-(6-((4-(2-(4-chloro-2-fluorophenyl)-2-methylbenzo[d][1,3]dioxol-4-yl)piperidin-1-yl)methyl)-5-methylpyridazin-3-yl)-1,2,4-oxadiazol-5(4H)-one] showed an EC50 of 1 to 100 nM.

A word on the EC50: it is the concentration needed to bring the measured effect to its halfway point.
